B1: SC03-012 (scFv)
scFv: AMAQVQLVQSGAEVKKPGASVKVSCKASGYTFTSYGISWVRQAPGQGLEWMGWISAYNGNTNYAQKLQGRVTMTTDTSTSTAYMELSSLRSDDTAVYYCARMFRKSSFDSWGQGTLVTVSRGGGGSGGGGSGGGGSSELTQDPAVSVALGQTVRITCQGDSLRSYYASWYQQKPGQAPVLVIYGKNNRPSGIPDRFSGSSSGNTASLTITGAQAEDEADYYCNSRDSSGNHVVFGGGTKLTVLGAAA

How the values were obtained:
[1] = test system: antibodies in sera from SARS patients (sera 1a, 1b, 2, 6, 37, 62, London, SARS-yellow, SARS-green); assay type: binding, human; parameters: Binding of serum 6 to linear peptides of protein X1 of SARS-CoV Urbani / Binding of serum 37 to linear peptides of protein X1 of SARS-CoV Urbani / Binding of serum 6 to looped/cyclic peptide (PEPSCAN-ELISA) / Binding of serum 37 to looped/cyclic peptide (PEPSCAN-ELISA) / Binding of serum 37 to looped/cyclic peptides of protein X1 of SARS-CoV Urbani / Binding of serum 6 to linear peptides of protein X2 / Binding of serum 37 to linear peptides of protein X2 / Binding of serum 37 to looped/cyclic peptides of protein X2 of SARS-CoV Urbani / Binding of serum 6 to linear peptides of protein M of SARS-CoV Urbani / Binding of serum 37 to linear peptides of protein M of SARS-CoV Urbani / Binding of serum 6 to looped/cyclic peptides of protein M of SARS-CoV Urbani / Binding of serum 37 to looped/cyclic peptides of protein M of SARS-CoV Urbani / Binding of serum 6 to linear peptides of protein X3 of SARS-CoV Urbani / Binding of serum 37 to linear peptides of protein X3 of SARS-CoV Urbani / Binding of serum 37 to looped/cyclic peptides of protein X3 of SARS-CoV Urbani / Binding of serum 6 to linear peptides of protein X4 of SARS-CoV Urbani / Binding of serum 37 to linear peptides of protein X4 of SARS-CoV Urbani / Binding of serum 37 to looped/cyclic peptides of protein X4 of SARS-CoV Urbani / Binding of serum 6 to linear peptides of protein X5 of SARS-CoV Urbani / Binding of serum 37 to linear peptides of protein X5 of SARS-CoV Urbani / Binding of serum 37 to looped/cyclic peptides of protein X5 of SARS-CoV Urbani / Binding of serum 6 to linear peptides of protein N of SARS-CoV Urbani / Binding of serum 37 to linear peptides of protein N of SARS-CoV Urbani / Binding of serum 6 to linear peptide (PEPSCAN-ELISA) / Binding of serum 1a to looped/cyclic peptides of protein N of SARS-CoV Urbani / Binding of serum 1b to looped/cyclic peptides of protein N of SARS-CoV Urbani / Binding of serum 2 to looped/cyclic peptides of protein N of SARS-CoV Urbani / Binding of serum 6 to looped/cyclic peptides of protein N of SARS-CoV Urbani / Binding of serum 37 to looped/cyclic peptides of protein N of SARS-CoV Urbani / Binding of serum 62 to looped/cyclic peptides of protein N of SARS-CoV Urbani / Binding of serum London to looped/cyclic peptides of protein N of SARS-CoV Urbani / Binding of serum SARS-green to looped/cyclic peptides of protein N of SARS-CoV Urbani: unit not given here
[2] = test system: control sera (pooled serum of ten healthy LUMC hospital workers; commercial negative donor pooled serum from the Dutch bloodbank); assay type: binding, human; parameters: Binding of Control serum LUMC to linear peptides / Binding of Control serum Blood-bank to linear peptides / Binding of Control serum LUMC to looped peptides / Binding of Control Serum Blood-Bank to Looped peptides / Binding of Control serum LUMC to linear peptides of the protein M of SARS-CoV Urbani / Binding of Control serum Blood-bank to linear peptides of the protein M of SARS-CoV Urbani / Binding of Control serum LUMC to looped peptides of the protein M of SARS-CoV Urbani / Binding of Control Serum Blood-Bank to Looped peptides of the protein M of SARS-CoV Urbani: unit not given here
[3] = test system: rabbit serum obtained by immunizing a rabbit with the SARS-CoV strain Frankfurt 1; assay type: binding; parameters: Binding of a rabbit serum to linear peptides / Binding of a rabbit serum to looped peptides / Rabbit serum linear peptides / Rabbit serum looped peptides / Binding of a rabbit serum to linear peptides of protein N of SARS-CoV Urbani (Rabbit serum linear peptides) / Binding of a rabbit serum to looped/cyclic peptides of protein N of SARS-CoV Urbani (Rabbit serum looped peptides): unit not given here
[4] = test system: recombinant human anti-SARS-CoV antibody 03-018; assay type: binding; parameters: Binding of antibody 03-018 to linear peptides of the N protein of SARS-CoV Urbani / Binding of antibody 03-018 to looped/cyclic peptides of the N protein of SARS-CoV Urbani: unit not given here
[5] = target: SARS-CoV preparation (Frankfurt 1 strain) (SARS-CoV strain Frankfurt 1)

Molecule	Binding of serum 1a to linear peptide (PEPSCAN-ELISA) [1]	Binding of serum 1a to looped/cyclic peptides of protein N of SARS-CoV Urbani [1]	Binding of serum 1b to linear peptide (PEPSCAN-ELISA) [1]	Binding of serum 1b to looped/cyclic peptides of protein N of SARS-CoV Urbani [1]	Binding of serum 2 to linear peptide (PEPSCAN-ELISA) [1]	Binding of serum 2 to looped/cyclic peptides of protein N of SARS-CoV Urbani [1]	Binding of serum 6 to looped/cyclic peptides of protein N of SARS-CoV Urbani [1]	Binding of serum 37 to looped/cyclic peptides of protein N of SARS-CoV Urbani [1]	Binding of serum 62 to looped/cyclic peptides of protein N of SARS-CoV Urbani [1]	Binding of serum London to looped/cyclic peptides of protein N of SARS-CoV Urbani [1]	Binding of serum SARS-green to looped/cyclic peptides of protein N of SARS-CoV Urbani [1]	Binding of serum SARS-yellow to looped/cyclic peptides of protein N of SARS-CoV Urbani [1]	Binding of Control Serum Blood-Bank to Looped peptides [2]	Binding of Control serum Blood-bank to linear peptides [2]	Binding of Control serum LUMC to linear peptides [2]	Binding of Control serum LUMC to looped peptides [2]	Binding of a rabbit serum to linear peptides of protein N of SARS-CoV Urbani (Rabbit serum linear peptides) [3]	Binding of a rabbit serum to looped/cyclic peptides of protein N of SARS-CoV Urbani (Rabbit serum looped peptides) [3]	Binding of antibody 03-018 to linear peptides of the N protein of SARS-CoV Urbani [4]	Binding of antibody 03-018 to looped/cyclic peptides of the N protein of SARS-CoV Urbani [4]	other results
RGGSQASSRSSSRSR	0.3	0.2	0.1	0.2	0.3	0.4	0.3	0.2	0.1	0.1	0.2	0.3	0.4	0.8	0.8	0.6	0.3	0.7	0.1	0.1	Binding of serum 6 to linear peptide (PEPSCAN-ELISA) [1]: 0.4; Binding of serum 37 to linear peptide (PEPSCAN-ELISA) [1]: 0.7; Binding of serum 62 to linear peptide (PEPSCAN-ELISA) [1]: 0.7; Binding of serum London to linear peptide (PEPSCAN-ELISA) [1]: 0.5; Binding of serum SARS-green to linear peptide (PEPSCAN-ELISA) [1]: 0.3; Binding of serum SARS-yellow to linear peptide (PEPSCAN-ELISA) [1]: 0.7
VTKKSAAEASKKPRQ		0.3		0.2		0.6	0.3	0.6	0.4	0.5	0.6	0.7	0.6	0.9	0.9	0.7	0.1	0.6	0.1	0.2	Recognition of the peptide by sera of SARS-CoV infected individuals, and form (linear, looped/cyclic) in which it is recognized [1]: recognized in linear form
GSQASSRSSSRSRGN	0.3	0.4	0.1	0.2	0.4	0.4	0.3	0.7	0.6	0.5	0.1	0.5	0.6	0.8	0.8	0.6	0.2	0.7	0.1	0.2	Binding of serum 6 to linear peptide (PEPSCAN-ELISA) [1]: 0.4; Binding of serum 37 to linear peptide (PEPSCAN-ELISA) [1]: 0.7; Binding of serum 62 to linear peptide (PEPSCAN-ELISA) [1]: 0.6; Binding of serum London to linear peptide (PEPSCAN-ELISA) [1]: 0.6; Binding of serum SARS-green to linear peptide (PEPSCAN-ELISA) [1]: 0.3; Binding of serum SARS-yellow to linear peptide (PEPSCAN-ELISA) [1]: 0.7
B1																					OD492nm [5]: 0.495 OD492nm
